Source: patent US20040162247A1, “Therapeutic agent or osteoporosis comprising an active ingredient of quercetin derivatives” (priority 2000, published 2004)

Columns and labels:
[1] = test system: human osteoblast-like cell line Saos-2; assay: Cell proliferation of Saos-2 cells, MTT method; type: cell-based; conditions: for MTT assay (% of control group): Saos-2, 3 days
Method: Saos-2 cell line which has similar properties to osteoblasts was obtained from Korean Cell Line Bank affiliated to the Cancer Research Institute of School of Medicine, Seoul National University.
Saos-2 cells were seeded in a RPMI 1640 medium (Gibco BRL, U.S.A.) supplemented with 10% (v/v) FBS, 100 unit/ml penicillin, 100 gg/ml streptomycin and grown to form a monolayer in an incubator at 37° C. under an environment of 5% (v/v) CO2 and saturated humidity. The culture was fed with fresh medium 2 to 3 times a week and subcultured once a week using 0.25% (w/v) trypsin.
Saos-2 cells were distributed into a 96-well plate (20,000 cells/well) and quercetin in 1% DMSO was added to a final concentration of 10-2 to 10^−9 mg/ml, 6 wells per each concentration. As a control group, cells without quercetin were used, and as a comparative group, the cells treated with various concentrations of genistein, being studied as a therapeutic agent for osteoporosis, were used. Cells were grown in an incubator at 37° C. for 3 days and incubated 4 more hours under the same condition after adding MTT (3-[4,5-dimethylthiazol-2-yl]-2,5-diphenyltetrazolium bromide, Triazolyl Blue) to a concentration of 0.05 mg/ml. Then, purple colored for-mazan formed in proportion to the number of viable cells was dissolved in DMSO and measured OD at 550 nm employing ELISA reader.
Cell proliferation rate (%) was evaluated by calculating the ratio of the OD of quercetin added well to the OD of control well, wherein, average value of ODs from 6 wells treated with the same concentration of quercetin was employed (see: Table 1).
cell proliferation rate (%)={(average value of OD at 550 nm of quercetin-treated wells—average value of OD at 550 nm of empty wells)/average value of OD at 550 nm of control wells}×100

[2] = test system: ALP activity in osteoblasts (Saos-2); assay: Alkaline phosphatase (ALP) activity in osteoblasts; type: cell-based, human; conditions: for ALP activity (% of control group): Saos-2, 3 days
Method: Since osteoblasts have cell specific alkaline phosphatase activity, the effect of quercetin of the invention on ALP activity in osteoblasts was evaluated as follows: the number of cells, concentration of tested agent, and culture condition were same as those used in MTT experiment of Example 1-2, and cells were harvested after 3 day-incubation. Genistein was used as a comparative agent. ALP activity was evaluated by analysing changes of OD at 405 nm result from hydrolysis of p-nitrophenylphosphate to p-nitrophenol and phosphate (see: Table 1).

ovariectomized rats [3] = assay: Trabecular bone area of tibia in ovariectomized rats;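 for Change Rate (%) of TBA of tibia, of control group: control group rats were ovariectomized and are not the sham group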; type: in vivo, Female SD (Sprague-Dawley) rats; conditions: OVX rats, 9 weeks i.p. (E2 1 μg/kg/day; quercetin, genistein 10 mg/kg/day); for Change Rate (%) of TBA of tibia, of control group: control group = 100
Method: (§1) Trabecular bone area (TBA) of lumbar and tibia removed from the rats of each group which was treated with various agents for 9 weeks were measured as follows: that is, using a digitalizer of quantitative image analysis system (Wild Leitz Co.), image of each trabecula was obtained on computer monitor by drawing a contour of the trabecula, and then, using a computer, calculated were average areas of trabeculae within a rectangle of 2×10^6 μm^2 area wherein the width is about ⅔ of the length of growth plate which located underneath of growth plate at proximity of tibia. Also, following the number of trabeculae within the rectangle were obtained, average area was multiplied by the number of trabeculae to obtain trabecular bone area of each sample bone, which was analyzed statistically (see: Table 5).

ovariectomized rats [4] = assay: Trabecular bone area of lumbars in ovariectomized rats;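 for Change Rate (%) of TBA of lumbars, of control group: control group rats were ovariectomized and are not the sham group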; type: in vivo, Female SD (Sprague-Dawley) rats; conditions: OVX rats, 9 weeks i.p. (E2 1 μg/kg/day; quercetin, genistein 10 mg/kg/day); for Change Rate (%) of TBA of lumbars, of control group: control group = 100
Method: as §1
TBAs of lumbars removed from the animal treated with test agents for 9 weeks were measured employing the same method above (see: Table 6).

ovariectomized rats [5] = assay: Complete blood count in ovariectomized rats; type: in vivo, Female SD (Sprague-Dawley) rats; conditions: rat, in vivo
Method: (§2) When test agents were administered, for a certain period of time before and after administration, 1.5 ml of blood was sampled from tail vein using a catheter (B.D Co.: 24 G) and subjected to complete blood count (Coulter Co.: JT) and biochemical analyses of plasma (Crone Co.: Airon® 200). During autopsy, blood was sampled from caudal venae cavae and subjected to the analyses above. And then, each sample was frozen to store for measurement of trabecular bone area of femur and examination of internal organs.
Complete blood count which reflects the condition and abnormality of the body was measured to find out abnormality in test animals caused by administrtion of agents. That is, to find out changes in hematopoiesis of test rats, measured were red blood cell (RBC) count, concentration of hemoglobin (Hb) and hematocrit (Ht) of-blood samples obtained from the rats prior to operation and the rats 10 weeks after administrating agents following operation, and to find out changes in immune system such as inflammation and necrosis of tissues, measured were white blood cell count, lymphocyte count, monocyte count, and granulocyte count (see: Table 7).

ovariectomized rats [6] = assay: Biochemical parameters in plasma of ovariectomized rats; type: in vivo, Female SD (Sprague-Dawley) rats; conditions: rat, in vivo
Method: as §2
Since blood reflects the condition of body, safety of quercetin in the body was evaluated by measuring biochemical parameters: that is, blood samples were obtained from the rat prior to operation, one week after operation, and 10 weeks after operation, and measured were levels of alkaline phosphatase (ALP), calcium, inorganic phosphate, blood urea nitrogen (BUN), creatinin, total cholesterol, HDL-cholesterol and LDL-cholesterol (see: Table 8).

Q: Which results are given for O=c1c(O)c(-c2ccc(O)c(O)c2)oc2cc(O)cc(O)c12 [Quercetin, quercetin]?
A: Cell proliferation by MTT method versus control cells (in words) ([1]; Saos-2, 1×10^−9 to 1×10^−3 mg/ml): did not show any difference from the control cells; MTT assay (% of control group) ([1]; 1 × 10^−2 mg/ml): 108.6 ± 2.2 % of control group; MTT assay (% of control group) ([1]; 1 × 10^−2 mg/ml, listed as quercetin): 109 % of control group; MTT assay (% of control group) ([1]; 1 × 10^−3 mg/ml): 98.3 ± 0.8 % of control group; MTT assay (% of control group) ([1]; 1 × 10^−4 mg/ml): 96.5 ± 0.8 % of control group; MTT assay (% of control group) ([1]; 1 × 10^−5 mg/ml): 95.8 ± 1.1 % of control group; MTT assay (% of control group) ([1]; 1 × 10^−6 mg/ml): 96.0 ± 1.0 % of control group; MTT assay (% of control group) ([1]; 1 × 10^−7 mg/ml): 98.6 ± 1.0 % of control group; MTT assay (% of control group) ([1]; 1 × 10^−8 mg/ml): 93.9 ± 0.8 % of control group; MTT assay (% of control group) ([1]; 1 × 10^−9 mg/ml): 93.1 ± 0.8 % of control group; ALP activity (% of control group) ([2]; 1 × 10^−2 mg/ml): 106.1 ± 4.3 % of control group; ALP activity (% of control group) ([2]; 1 × 10^−3 mg/ml): 107.3 ± 1.5 % of control group; ALP activity (% of control group) ([2]; 1 × 10^−4 mg/ml): 113.5 ± 2.3 % of control group; ALP activity (% of control group) ([2]; 1 × 10^−5 mg/ml): 116.5 ± 3.7 % of control group; ALP activity (% of control group) ([2]; 1 × 10^−6 mg/ml): 127.2 ± 3.5 % of control group; ALP activity (% of control group) ([2]; 1 × 10^−6 mg/ml, listed as quercetin): 127 % of control group; ALP activity (% of control group) ([2]; 1 × 10^−7 mg/ml): 101.2 ± 3.1 % of control group; ALP activity (% of control group) ([2]; 1 × 10^−8 mg/ml): 104.4 ± 3.9 % of control group; ALP activity (% of control group) ([2]; 1 × 10^−9 mg/ml): 98.1 ± 0.0 % of control group; ALP activation effect relative to genistein ([2]; maximum at 1×10^−6 mg/ml (quercetin) versus 1×10^−4 mg/ml (genistein)): about 100 fold; TBA (trabecular bone area) of tibia (ovariectomized rats [3]): 55.52 ± 7.68 ×10^4 μm^2; Change Rate (%) of TBA of tibia, of control group (ovariectomized rats [3]): 160.34 ± 22.17 %; Change Rate (%) of TBA of tibia, of control group (ovariectomized rats [3]; listed as quercetin): 160%; TBA (trabecular bone area) of lumbars (ovariectomized rats [4]): 87.38 ± 4.53 ×10^4 μm^2; Change Rate (%) of TBA of lumbars, of control group (ovariectomized rats [4]): 129.40 ± 6.71 %; Change Rate (%) of TBA of lumbars, of control group (ovariectomized rats [4]; listed as quercetin): 129%; Concentration of hemoglobin(Hb) (ovariectomized rats [5]): 16.00 ± 0.30 g/dL; Granulocyte count (ovariectomized rats [5]): 2.80 ± 0.30 ×10^3 cells/μl; Hematocrit(Ht) (ovariectomized rats [5]): 43.62 ± 0.83%; Lymphocyte count (ovariectomized rats [5]): 16.78 ± 3.52 ×10^3 cells/μl; Monocyte count (ovariectomized rats [5]): 0.65 ± 0.07 ×10^3 cells/μl; Red blood cell(RBC) count (ovariectomized rats [5]): 7.29 ± 0.15 ×10^6 cells/μl; White blood cell count (ovariectomized rats [5]): 20.28 ± 3.77 ×10^3 cells/μl; White blood cell count, before versus after operation (in words) (ovariectomized rats [5]): did not show any changes; Concentration of ALP in plasma (ovariectomized rats [6]): 232.83 ± 20.27 U/dL; Concentration of HDL-cholesterol in plasma (ovariectomized rats [6]): 53.38 ± 3.14 mg/dL; Concentration of LDL-cholesterol in plasma (ovariectomized rats [6]): 24.17 ± 3.13 mg/dL; Concentration of blood urea nitrogen (BUN) (ovariectomized rats [6]): 17.05 ± 0.60 mg/dL; Concentration of calcium in plasma (ovariectomized rats [6]): 10.73 ± 0.48 mg/dL; Concentration of creatinin in plasma (ovariectomized rats [6]): 0.57 ± 0.05 mg/dL; Concentration of inorganic phosphate in plasma (ovariectomized rats [6]): 6.79 ± 0.66 mg/dL; Concentration of total cholesterol in plasma (ovariectomized rats [6]): 77.55 ± 5.13 mg/dL
